In paper PMC11603075 (Communications Biology, 2024):

Key:
KDM5A = test: MALDI–TOF MS demethylation/+16 Da assay, KDM5A; type: biochemical, human; conditions: 90 min
Source text: (§1) Fig. 2 Histone H2a fragments are KDM5 and KDM4 substrates. […] See Supplementary Table 6 and Supplementary Fig. 2 for assay conditions and quantification, respectively. […] 0-minute MS spectrum in black, 60/90-minute spectrum in red.
(§2) MS-based screening assays with peptides and calf thymus histones were as reported; see Supplementary Table 6 for conditions. Time course assays were based on reported procedures. In brief, equal volumes of the enzyme and substrate solutions were combined to initiate the reaction; 10 µL of 2% (v/v) formic acid (HCOOH) in ddH2O or 100% methanol was added to 10 µL of the reaction mixture to quench reactions at different time points. Unless otherwise stated, time course assays were carried out in triplicate. In some cases, LC–MS was used instead of MALDI-TOF MS to avoid a MALDI matrix induced artefact with the hydroxylated product (Supplementary Fig. 16). […]
(§3) Supplementary Figure 2 Histone H2a peptide fragments are substrates of KDM4s and KDM5s.
(§4) 2 for representative corresponding MALDI–TOF MS traces. Bar graphs comparing % product format ion (+16 Da and demethylation) of H2a(1–20)R3me2a by (a) K DM5 A–D (after 90 minutes) and (b) KDM4A–E ( a ft er 60 minutes), analysed by MALDI– TOF MS. n = (a) 2, (b) 3 (independent assays). See Supplementary Table 6 for assay condit ions. See Figure S13 A 1 for a positive control.
(§5) (also on this page, place not known: formation KDM5A–D (after MALDI–TOF conditions. Figure S13A1 KDM4A KDM4B KDM4C KDM4D KDM4E 80% product formation KDM5A KDM5B KDM5C KDM5D % product formation) […]
(§6) [ E nz ym e] [Peptide] [2OG] [Ascorbate] [(NH4)2F e(S O4)2] [TCEP] Buffer pH7.5 Enzyme Cognate substrate (mM) (mM) (mM) (mM) (mM) (mM) [HE PE S]
(§7) Supplementary Table 6 Summary of MS assay conditions for substrate screening. These conditions enabled efficient turnover of established substrates. Reactions were carried out at 37 °C unless otherwise st ated. […]

KDM5C = molecular target: T1, KDM5C (Homo sapiens, UniProt P41229); test: MALDI–TOF MS demethylation/+16 Da assay, KDM5C; type: biochemical; conditions: 90 min
T1 construct: KDM5C 1– 765; made in house; host or cells: Sf9 cells
T1 sequence (P41229 1-765): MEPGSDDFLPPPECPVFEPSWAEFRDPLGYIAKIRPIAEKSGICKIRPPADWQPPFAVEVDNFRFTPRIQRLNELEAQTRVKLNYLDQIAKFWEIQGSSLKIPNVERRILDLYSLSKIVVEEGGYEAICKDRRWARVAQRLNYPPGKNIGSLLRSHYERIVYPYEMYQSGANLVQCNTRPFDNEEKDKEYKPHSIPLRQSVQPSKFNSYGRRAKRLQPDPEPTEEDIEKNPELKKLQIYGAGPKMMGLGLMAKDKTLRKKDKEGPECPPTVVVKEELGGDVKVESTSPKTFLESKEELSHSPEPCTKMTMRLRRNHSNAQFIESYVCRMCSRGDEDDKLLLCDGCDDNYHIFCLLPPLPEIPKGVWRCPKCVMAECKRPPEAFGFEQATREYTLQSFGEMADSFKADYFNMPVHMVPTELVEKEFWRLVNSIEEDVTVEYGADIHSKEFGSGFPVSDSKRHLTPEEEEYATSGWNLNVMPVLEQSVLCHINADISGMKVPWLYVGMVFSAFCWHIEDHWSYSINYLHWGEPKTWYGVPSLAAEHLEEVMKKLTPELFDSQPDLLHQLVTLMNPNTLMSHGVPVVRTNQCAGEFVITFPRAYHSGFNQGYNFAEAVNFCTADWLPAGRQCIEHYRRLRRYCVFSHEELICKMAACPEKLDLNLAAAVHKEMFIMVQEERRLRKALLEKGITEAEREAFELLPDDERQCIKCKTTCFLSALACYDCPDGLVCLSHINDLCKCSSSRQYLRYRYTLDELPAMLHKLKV
Source text: as §1, §2, §3, §4, §5, §6, §7

Ac - SGR [ me 2a ] GKQ GGKAR AKAKT R SSR [H2a(1–20)R3me2a, H2a(1–20)R3me2a without a biotin tag]
+16 Da (% product formation) (KDM5A; replicate 1): 0%
demethylation (% product formation) (KDM5A; replicate 1): 52.427%
+16 Da (% product formation) (KDM5A; replicate 2): 0%
demethylation (% product formation) (KDM5A; replicate 2): 53.348%
+16 Da (% product formation) (KDM5C; replicate 1): 0%
demethylation (% product formation) (KDM5C; replicate 1): 80.591%
+16 Da (% product formation) (KDM5C; replicate 2): 0%
demethylation (% product formation) (KDM5C; replicate 2): 82.588%
